Here are results for 1 compound from patent EP0955045A1, “DRUGS FOR IMPROVING OCULAR CIRCULATION DISORDERS” (Senju Pharmaceutical Co., Ltd., priority 1996, dated 1998).

Structures can show the parent of a compound that is named as a salt. Where two headings read alike, the source gives them in different places.

In data set [1] the test system is blood flow of optic nerve head induced by intravitreous injection of ET-1. Briefly: Effect of topical instillation on the ET-1-induced decrease in optic nerve head blood flow (hydrogen clearance method). In kind it is in vivo, Male Dutch pigmented rabbits. Particulars: versus physiological saline in contralateral eye; 30 to 120 minutes after ET-1 injection; paired t-test; n=6. The protocol: The effect of topically applied amosulalol hydrochloride on the blood flow of optic nerve head induced by intravitreous injection of ET-1 in pigmented rabbits.
Male Dutch pigmented rabbits weighing about 2 kg were purchased from Fukusaki Rabbit Farmers Association and used after confirmation of absence of ocular abnormality. The rabbits were housed at 23 ±3 °C and 55±10% R.H. and put on a ration of 100 g/day of rabbit chow (Labo R Stock, Nippon Nosan Kogyo K.K.) with free access to tap water.
As the investigational drug, the anti-ocular circulatory disturbance composition containing 0.5% (w/v) of amosulalol hydrochloride as obtained in Example 7 was used. As a control drug, physiological saline solution was used. […]
The rabbit was placed in a retainer for rabbits and, after instillation of Mydrin P (Registered Trademark, Santen Pharmaceutical) for mydriasis and observation of the optic nerve head for any abnormality, general anesthesia was introduced by injecting urethane (dissolved in distilled water to 20% concentration), 1 g/kg, subcutaneously in the abdominal region. […] The half-life (T1/2) was determined from the line and the blood flow was calculated by means of Kety's theoretical formula (Journal of Clinical Investigate, 27, 476-483, 1948). […]

Data set [2] deals with mice. As to conditions: cited from earlier work.

`COc1ccccc1OCCNCC(O)c1ccc(C)c(S(N)(=O)=O)c1` (stereo not drawn) [amosulalol hydrochloride, 5-{1-hydroxy-2-[2-(2-methoxyphenoxy)ethylamino]ethyl}-2-methylbenzenesulfonamide]: in data set [1], the “inhibition of the ET-1-induced decrease in blood flow” value is “inhibited”. The acute toxicity entry in data set [2] (intravenous administration) and in data set [2] (oral administration) was “very low” throughout.
